# Measurements as given in patent US6662040B1, “Methods of photoacoustic imaging” (Amersham Health AS, priority 1997, dated 2003).
# How the values were obtained:
# [1] = cited from earlier work
# HT-29 tumors = experiment: Comparative biodistribution in mice containing HT-29 tumors; type: in vivo, female immunodeficient mice; settings: for detection in the tumor: PBS solution
# From the text: (§1) FIG. 1a is a graph of comparative biodistribution data of contrast agent NC100448 versus indocyanine green as control in female immunodeficient mice containing HT-29 tumors at one hour post intravenous injection of phosphate buffered saline solutions of each.
# as §1, with “1b” for “1a”, “three hours” for “one hour”, “each. […] Relative to FIG. 1a, the concentration of the contrast agent in the tumor has increased while the concentration in the blood has decreased.” for “each.”
# Biodistribution results are presented in FIGS. 1a (one hour post-dosing) and 1b (three hours post-dosing).
# [2] = not told
# Description: Monochromatic X-rays with a photon energy of 20 to 30 keV are obtained with a double crystal monochromator using white X-rays from a sychrotron. The beam intensity is modulated by a rotating lead plate chopper with a frequency of 10 Hz. The sample chamber is a cylindrical cell with a volume of about 0.5 ml in a saline bath which has two beryllium windows. The photon flux into the sample chamber is measured with an ionization chamber placed in front.
# The amplitude of the photoacoustic signal, normalized to the photon flux, is measured when the sample chamber contains the saline solution and when it contains a barium sulfate suspension.
# The amplitude of the photoacoustic signal, normalized to the photon flux, is measured when the sample chamber contains the saline solution and when it contains a solution of iodixanol in PBS.
# [3] = Photoacoustic imaging with infrared radiation in mice; type: in vivo, hairless, immunocompetent mice; settings: 100 μl i.v. tail vein of 4.6 mg/ml in PBS, 750 nm alexandrite laser, immediately following injection
# Description: The dry contrast agent (4.6 mg) was dissolved immediately before use in 1 ml phosphate buffered saline (Delbecco's buffer). The solution was doubly filtered through a syringe filter with a pore size of 0.45 μm and then was stored in the dark before injection.
# The test animals were hairless, immunocompetent mice weighing about 23 g, which were anaesthetized I. m. with 5 μl xylazine (Rompun) and 10 μl ketamine prior to the measurements.
# The irradiating light was produced by an alexandrite laser operating at a frequency of 750 nm. The light beam was attenuated with a neutral density filter so that the energy imparted by each pulse to the skin of the mice was less than 50 millijoules.
# For imaging, the mouse rested on the lithium niobate acoustic transducer. The photoacoustic signal was detected after it passed to the opposite side of the mouse from incident radiation. The signal was detected after it passed through the body of the mouse to the opposite side from the point of irradiation.
# Before injection of the contrast agent, the first mouse was positioned on its back on the transducer so as to maximize the internal signal when the skin above the liver was irradiated. […] The injected dose was 100 μl injected intravenously into the tail vein with a 26 gauge needle. Immediately following injection, the mouse was again positioned for a maximum signal.
# [4] = one hour post intravenous injection
# [5] = three hours post intravenous injection
molecule,measurement,setting,value
Oc1ccc2ccccc2c1N=Nc1ccc(N=Nc2ccccc2)cc1 [Sudan III],solubility in sesame oil,[1]; sesame oil,soluble in sesame oil
same,solubility in water,[1]; water,very water insoluble
CC1(C)C(/C=C/C=C/C=C/C=C2\N(CCCCS(=O)(=O)O)c3ccc4ccccc4c3C2(C)C)=[N+](CCCCS(=O)(=O)[O-])c2ccc3ccccc3c21 [indocyanine green],detection in the tumor,HT-29 tumors; [4],negligibly detected
same,detection in the tumor,HT-29 tumors; [5],negligibly detected
CC(=O)N(CC(O)CN(C(C)=O)c1c(I)c(C(=O)NCC(O)CO)c(I)c(C(=O)NCC(O)CO)c1I)c1c(I)c(C(=O)NCC(O)CO)c(I)c(C(=O)NCC(O)CO)c1I (stereo not shown) [iodixanol],"amplitude of the photoacoustic signal normalized to photon flux, versus saline solution",[2],larger
"bis(thioether) 2:1 dye:polymer Reaction Product Between 2-[2-[2-chloro-3-[[1,3-dihydro-1,1,-dimethyl-3-(3-sulfopropyl)-2H-benz [e]indol-2-ylidene]ethylidene]-5-(ethoxycarbonyl)-1-cyclohexen-1-yl]ethenyl]-1,1-dimethyl-3-(3-sulfopropyl)-1H-benz[e]indolium, Inner Salt, Sodium Salt and Disodium PEG3,4000-α,ω-dithiolate [NC100448]",detection in the tumor,HT-29 tumors; [4],detected in the tumor
same,concentration in the blood relative to FIG. 1a (one hour),HT-29 tumors; [5],decreased
same,concentration in the tumor relative to FIG. 1a (one hour),HT-29 tumors; [5],increased
same,detection in the tumor,HT-29 tumors; [5],detected in the tumor
same,maximum detected signal from the blood vessels of the liver versus prior to injection,[3],5 to 10 times larger
